In this experiment the target is human LPAR1 (Homo sapiens, UniProt Q92633). The experiment can be described thus: LPAR1 intracellular calcium mobilization assay (antagonist mode, FLIPR). It is filed as cell-based. To be noted: CHO-K1 EDG2 cells expressing human LPAR1; test compound 0.5 nM to 10 μM pre-incubated 60 minutes at 37° C., then LPA 18:2 at EC80 concentration (100 nM). Put shortly:
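CHO-K1 cells expressing human LPAR1, Calcium 6 dye-loaded with 2.5 mM probenecid, pre-incubated 60 min at 37°C with compound (0.5 nM–10 μM), then challenged with LPA 18:2 at EC80 (100 nM). FLIPR Tetra signal amplitude (max minus min) plotted against log concentration.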
(In general: Calcium assays in cells follow changes in intracellular calcium, usually with a dye or a luminescent sensor.)
human LPAR1, sequence (Q92633 whole entry): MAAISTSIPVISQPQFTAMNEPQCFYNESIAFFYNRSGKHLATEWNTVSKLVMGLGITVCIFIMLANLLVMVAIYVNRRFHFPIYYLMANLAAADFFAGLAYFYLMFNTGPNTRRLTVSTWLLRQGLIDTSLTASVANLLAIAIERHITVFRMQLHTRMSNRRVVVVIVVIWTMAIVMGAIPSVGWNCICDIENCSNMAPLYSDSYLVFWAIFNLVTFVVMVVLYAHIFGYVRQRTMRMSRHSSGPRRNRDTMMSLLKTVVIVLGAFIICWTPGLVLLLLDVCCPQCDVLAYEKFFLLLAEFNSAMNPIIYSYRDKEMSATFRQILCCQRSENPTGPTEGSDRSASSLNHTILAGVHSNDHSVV
Turning to `C[C@@H](OC(=O)Nc1c(-c2ccc(C(=O)NC34CC(F)(C3)C4)c(F)n2)nnn1C)c1cccnc1Cl` [Compound 63, (R)-1-(2-chloropyridin-3-yl)ethyl (4-(6-fluoro-5-((3-fluorobicyclo[1.1.1]pentan-1-yl)carbamoyl)pyridin-2-yl)-1-methyl-1H-1,2,3-triazol-5-yl)carbamate], the half-maximal effective concentration (EC50) – broadly, the midpoint of the concentration-response curve – is 145 nM.

For `C[C@@H](OC(=O)Nc1c(-c2ncc(C(=O)NC34CC(F)(C3)C4)cc2F)nnn1C)c1cccnc1Cl` [Compound 64, (R)-1-(2-chloropyridin-3-yl)ethyl (4-(3-fluoro-5-((3-fluorobicyclo[1.1.1]pentan-1-yl)carbamoyl)pyridin-2-yl)-1-methyl-1H-1,2,3-triazol-5-yl)carbamate], the concentration giving a half-maximal response (EC50) is 93.5 nM.

`C[C@@H](OC(=O)Nc1c(-c2ccc(C(=O)NC34CC(C#N)(C3)C4)c(Cl)n2)nnn1C)c1cccnc1Cl` [Compound 65, (R)-1-(2-chloropyridin-3-yl)ethyl (4-(6-chloro-5-((3-cyanobicyclo[1.1.1]pentan-1-yl)carbamoyl)pyridin-2-yl)-1-methyl-1H-1,2,3-triazol-5-yl)carbamate]: the concentration for a half-maximal effect (EC50) is < 4.6 nM.

With `C[C@@H](OC(=O)Nc1c(-c2ccc(C(=O)NC34CC(F)(C3)C4)c(C(F)(F)F)n2)nnn1C)c1cccnc1Cl` [Compound 66, (R)-1-(2-chloropyridin-3-yl)ethyl (4-(5-((3-fluorobicyclo[1.1.1]pentan-1-yl)carbamoyl)-6-(trifluoromethyl)pyridin-2-yl)-1-methyl-1H-1,2,3-triazol-5-yl)carbamate], the EC50 worked out at 210 nM.

The values are drawn from US12503454B2, “LPA receptor antagonists and uses thereof” (Gilead Sciences, Inc., priority 2021, dated 2025).
